{"source": "paper PMC9562916", "about": "“Investigation of the Phenolic Component Bioavailability Using the In Vitro Digestion/Caco-2 Cell Model, as well as the Antioxidant Activity in Chinese Red Wine” (Foods, 2022)", "key": {"[1]": {"experiment": "PC content of red wine before and after in vitro simulated gastrointestinal digestion (HPLC)", "format": "in vitro ADME", "experimental": "The digestion procedure was carried out by adapting the method of Brodkorb et al. and Gómez et al.. […] One milliliter (50 units/mL) of porcine amylase was prepared in a 15 mM Na₃PO₄ buffer solution (pH adjusted to 6.8) containing 1.5 mM CaCl2, and it was added to the red wine solution. After 5 min, 4.5 mL of 0.12 M HCl was added to the mixture to adjust the pH to 2.4. One milliliter of porcine pepsin (0.02 mg/L) was dissolved in a 20 mM HCl solution. The mixture was then maintained at 37 °C for 120 min. The digestion mixture was then centrifuged at 8000× g for 15 min to obtain samples from the gastric digestion phase. […] The mixture was incubated at pH 6.5 at 37 °C for 3 h before being centrifuged. The extracts of the intestinal phase were the supernatants. The same operation was done three times, and each sample was stored in a refrigerator (−20 °C) immediately for further analysis.\nThe Pati method was adopted, with slight modifications, to measure the content of the PCs. The Agilent 1100 series HPLC instrument was used; it was equipped with a degasser, quaternary pump solvent delivery, a DAD system, and a single quadrupole mass detector coupled with an electrospray ionization LC–MS interface. Briefly, th samples were injected into a Zorbax SB C18 reversed-phase column (5 µm,150 × 2.1 mm, Agilent Technologies, Santa Clara, CA, USA) using an autosampler after filtering through 0.45 µm cellulose acetate syringe filters. The column temperature was kept at 30 °C, the injection volume was 10 µL, and the flow rate was 0.3 mL/min. The eluents were water and formic acid in a 99:1 (v/v) (A) ratio and 100% acetonitrile (B). […] The MS configuration was as follows: ESI, negative ion mode, nebulizer pressure of 30 psi, a dry gas flow rate of 10 mL/min, dry gas temperature of 350 °C, and a scan rate of 100~1200 m/z. PCs were determined according to their retention times, UV/VIS spectra, and high-resolution MS spectra, in addition to a comparison with the standards. […] Putative annotations were made using spectral features and literature information on the chromatographic properties and mass spectra records from the metabolome database. A standard curve was drawn using methanol solutions with different concentrations as the standards. The limits of detection and quantitation were calculated according to the signal-to-noise ratio (limit of detection: signal-to-noise ratio ≥ 3; limit of quantitation: signal-to-noise ratio ≥ 10). […] PCs All of the samples were determined in triplicate."}, "Caco-2 cell monolayer": {"system": "Caco-2 cell monolayer", "experiment": "Caco-2 transepithelial transport assay of digested red wine", "format": "in vitro ADME, human", "settings": "digested sample, basolateral side of Caco-2 monolayer", "experimental": "(§1) Caco-2 cells were inoculated following the method of Hubatsch et al. […] Briefly, a 5% v/v of CO2 incubator at 37 °C was used to house the cells. […] Caco-2 cells were sub-cultured when they reached 80-90% of the adherent growth by treating them with a 0.05% v/v of trypsin-EDTA solution. The culture between passages 35 and 40 was used for the following experiment. Transport experiments were performed according to the method of Wu et al. with slight modifications. First, 1.0 × 10^5 Caco-2 cells were inoculated onto 12 mm transparent cell culture plates (Transwell). Media were carefully injected into the apical (0.5 mL) and basolateral (1.5 mL) sides of the Transwell plates. The cell culture medium had to be replaced every other day until the cells formed a monolayer. The integrity and transport ability of the Caco-2 cell monolayer were evaluated by measuring the trans-epithelial electrical resistance (TEER) with a MilliCell voltammeter (Millicell ERS-2, Merck Millipore, Billerica, MA, USA). […] When the cell activity exceeded 0.9, a transport experiment was conducted. The apical side was injected with a digested red wine sample (0.5 mL) and was thoroughly mixed with […] Balanced Salt Solution (HBSS) buffer solution. […] The cells were then cultured in a 37 °C, 5% CO2 incubator. Then, 0.25 mL samples were separately taken from the basolateral side of the monolayer. An equal volume of HBSS buffer was then added every half hour from the beginning of the culture until the end of the culture at 6 h. The collected samples were subsequently filtered and placed in the sample bottle for further HPLC analysis. This experiment was repeated several times to collect enough samples for the next antioxidant test. […] The Agilent 1100 series HPLC instrument was used; it was equipped with a degasser, quaternary pump solvent delivery, a DAD system, and a single quadrupole mass detector coupled with an electrospray ionization LC-MS interface. […] The column temperature was kept at 30 °C, the injection volume was 10 μL, and the flow rate was 0.3 mL/min. The eluents were water and formic acid in a 99:1 (v/v) (A) ratio and 100% acetonitrile (B). The gradient elution procedure was as follows: (1) 3% B solvent at 0 min, (2) 3 to 16% B solvent at 10 min, (3) 16 to 20% B solvent at 30 min, and (4) 20% B solvent maintained until the procedure was completed. The MS configuration was as follows: ESI, negative ion mode, nebulizer pressure of 30 psi, a dry gas flow rate of 10 mL/min, dry gas temperature of 350 °C, and a scan rate of 100~1200 m/z. PCs were determined according to their retention times, UV/VIS spectra, and high-resolution MS spectra, in addition to a comparison with the standards. […] If a standard was unavailable, a structurally related compound was used. Putative annotations were made using spectral features and literature information on the chromatographic properties and mass spectra records from the metabolome database. A standard curve was drawn using methanol solutions with different concentrations as the standards. […] PCs All of the samples were determined in triplicate."}, "[2]": {"experiment": "Caco-2 transepithelial transport assay of digested red wine", "format": "in vitro ADME, human", "settings": "human, Caco-2, apical to basolateral", "experimental": "as §1"}}, "note": "Where two headings read alike, the source gives them in different places. Marks after values point to notes of the source that are not given here."}
{"smiles": "O=c1c(O[C@@H]2O[C@H](CO)[C@@H](O)[C@H](O)[C@H]2O)c(-c2ccc(O)c(O)c2)oc2cc(O)cc(O)c12", "note": "[Isoquercetin]", "values": [{"measurement": "PC Contents, Cabernet, After Digestion", "setting": "[1]; Cabernet red wine, after simulated gastrointestinal digestion", "result": "13.46 ± 0.59 ^b mg/L"}, {"measurement": "PC Contents, Helanshan, After Digestion", "setting": "[1]; Helanshan red wine, after simulated gastrointestinal digestion", "result": "12.01 ± 0.37 ^b mg/L"}, {"measurement": "Increase in content after digestion", "setting": "[1]; Tianzhu red wine, after digestion vs undigested", "result": 9.8, "unit": "%"}, {"measurement": "PC Contents, Tianzhu, After Digestion", "setting": "[1]; Tianzhu red wine, after simulated gastrointestinal digestion", "result": "19.13 ± 0.69 ^b mg/L"}, {"measurement": "PC Contents, Cabernet, Transmembrane", "setting": "Caco-2 cell monolayer; Cabernet red wine", "result": "0.83 ± 0.04 ^a mg/L"}, {"measurement": "PC Contents, Helanshan, Transmembrane", "setting": "Caco-2 cell monolayer; Helanshan red wine", "result": "0.72 ± 0.04 ^a mg/L"}, {"measurement": "PC Contents, Tianzhu, Transmembrane", "setting": "Caco-2 cell monolayer; Tianzhu red wine", "result": "3.81 ± 0.18 ^a mg/L"}, {"measurement": "Papp at 6 h", "setting": "[2]; digested Cabernet red wine, read-out: Apparent Permeability Coefficients, Cabernet", "result": "3.84 ± 0.29", "unit": "×10⁻⁶ cm/s"}, {"measurement": "Papp at 6 h", "setting": "[2]; digested Helanshan red wine, read-out: Apparent Permeability Coefficients, Helanshan", "result": "3.73 ± 0.27", "unit": "×10⁻⁶ cm/s"}, {"measurement": "Papp at 6 h", "setting": "[2]; digested Tianzhu red wine, read-out: Apparent Permeability Coefficients, Tianzhu", "result": "3.87 ± 0.23", "unit": "×10⁻⁶ cm/s"}]}
